Test results reported in the NIST ThermoML archive (doi:10.1021/je700647x).
± gives the expanded uncertainty stated by the source.

How the values were obtained:
[1] = xn = mol fraction of the nth substance listed; conditions: Ring tensiometer
[2] = Ring tensiometer

**Q.** With `CN(CCO)CCO` [N-methyldiethanolamine] + CCO as the compound, how does the surface tension liquid-gas ([1]; 288.15 K, x1 = 0.0253) read?
**A.** 23.45 ± 0.38 mN/m

**Q.** And the surface tension liquid-gas ([1]; 288.15 K, x1 = 0.0321)?
**A.** 23.58 ± 0.38 mN/m

**Q.** What about the surface tension liquid-gas ([1]; 288.15 K, x1 = 0.1033) of the same compound?
**A.** 24.92 ± 0.4 mN/m

**Q.** And the surface tension liquid-gas ([1]; 288.15 K, x1 = 0.1629)?
**A.** 26.03 ± 0.42 mN/m

**Q.** And the surface tension liquid-gas ([1]; 288.15 K, x1 = 0.1705)?
**A.** 26.18 ± 0.42 mN/m

**Q.** And the surface tension liquid-gas ([1]; 288.15 K, x1 = 0.2474)?
**A.** 27.58 ± 0.44 mN/m

**Q.** What about the surface tension liquid-gas ([1]; 288.15 K, x1 = 0.3713) of the same compound?
**A.** 29.85 ± 0.48 mN/m

**Q.** What about the surface tension liquid-gas ([1]; 288.15 K, x1 = 0.4806) of the same compound?
**A.** 31.8 ± 0.51 mN/m

**Q.** What about the surface tension liquid-gas ([1]; 288.15 K, x1 = 0.5506) of the same compound?
**A.** 33.02 ± 0.53 mN/m

**Q.** What about the surface tension liquid-gas ([1]; 288.15 K, x1 = 0.7035) of the same compound?
**A.** 35.58 ± 0.58 mN/m

**Q.** And the surface tension liquid-gas ([1]; 288.15 K, x1 = 0.7452)?
**A.** 36.25 ± 0.59 mN/m

**Q.** And the surface tension liquid-gas ([1]; 288.15 K, x1 = 0.8227)?
**A.** 37.51 ± 0.62 mN/m

**Q.** And the surface tension liquid-gas ([1]; 288.15 K, x1 = 0.9368)?
**A.** 39.11 ± 0.66 mN/m

**Q.** What about the surface tension liquid-gas ([1]; 288.15 K, x1 = 1) of the same compound?
**A.** 39.99 ± 0.67 mN/m

**Q.** And the surface tension liquid-gas ([1]; 293.15 K, x1 = 0.0253)?
**A.** 23.11 ± 0.37 mN/m

**Q.** And the surface tension liquid-gas ([1]; 293.15 K, x1 = 0.0321)?
**A.** 23.24 ± 0.38 mN/m

**Q.** And the surface tension liquid-gas ([1]; 293.15 K, x1 = 0.1033)?
**A.** 24.59 ± 0.4 mN/m

**Q.** What about the surface tension liquid-gas ([1]; 293.15 K, x1 = 0.1629) of the same compound?
**A.** 25.7 ± 0.41 mN/m

**Q.** What about the surface tension liquid-gas ([1]; 293.15 K, x1 = 0.1705) of the same compound?
**A.** 25.83 ± 0.42 mN/m

**Q.** What about the surface tension liquid-gas ([1]; 293.15 K, x1 = 0.2474) of the same compound?
**A.** 27.24 ± 0.44 mN/m

**Q.** What about the surface tension liquid-gas ([1]; 293.15 K, x1 = 0.3713) of the same compound?
**A.** 29.47 ± 0.47 mN/m

**Q.** What about the surface tension liquid-gas ([1]; 293.15 K, x1 = 0.4806) of the same compound?
**A.** 31.4 ± 0.5 mN/m

**Q.** And the surface tension liquid-gas ([1]; 293.15 K, x1 = 0.5506)?
**A.** 32.6 ± 0.53 mN/m

**Q.** What about the surface tension liquid-gas ([1]; 293.15 K, x1 = 0.7035) of the same compound?
**A.** 35.06 ± 0.57 mN/m

**Q.** What about the surface tension liquid-gas ([1]; 293.15 K, x1 = 0.7452) of the same compound?
**A.** 35.71 ± 0.59 mN/m

**Q.** What about the surface tension liquid-gas ([1]; 293.15 K, x1 = 0.8227) of the same compound?
**A.** 36.91 ± 0.61 mN/m

**Q.** And the surface tension liquid-gas ([1]; 293.15 K, x1 = 0.9368)?
**A.** 38.42 ± 0.65 mN/m

**Q.** And the surface tension liquid-gas ([1]; 293.15 K, x1 = 1)?
**A.** 39.26 ± 0.66 mN/m

**Q.** What about the surface tension liquid-gas ([1]; 298.15 K, x1 = 0.0253) of the same compound?
**A.** 22.79 ± 0.39 mN/m

**Q.** And the surface tension liquid-gas ([1]; 298.15 K, x1 = 0.0321)?
**A.** 22.92 ± 0.37 mN/m

**Q.** And the surface tension liquid-gas ([1]; 298.15 K, x1 = 0.1033)?
**A.** 24.32 ± 0.39 mN/m

**Q.** What about the surface tension liquid-gas ([1]; 298.15 K, x1 = 0.1629) of the same compound?
**A.** 25.45 ± 0.41 mN/m

**Q.** What about the surface tension liquid-gas ([1]; 298.15 K, x1 = 0.1705) of the same compound?
**A.** 25.59 ± 0.41 mN/m

**Q.** And the surface tension liquid-gas ([1]; 298.15 K, x1 = 0.2474)?
**A.** 27.02 ± 0.43 mN/m

**Q.** What about the surface tension liquid-gas ([1]; 298.15 K, x1 = 0.3713) of the same compound?
**A.** 29.28 ± 0.47 mN/m

**Q.** What about the surface tension liquid-gas ([1]; 298.15 K, x1 = 0.4806) of the same compound?
**A.** 31.18 ± 0.5 mN/m

**Q.** What about the surface tension liquid-gas ([1]; 298.15 K, x1 = 0.5506) of the same compound?
**A.** 32.39 ± 0.52 mN/m

**Q.** And the surface tension liquid-gas ([1]; 298.15 K, x1 = 0.7035)?
**A.** 34.92 ± 0.57 mN/m

**Q.** And the surface tension liquid-gas ([1]; 298.15 K, x1 = 0.7452)?
**A.** 35.58 ± 0.58 mN/m

**Q.** What about the surface tension liquid-gas ([1]; 298.15 K, x1 = 0.8227) of the same compound?
**A.** 36.71 ± 0.61 mN/m

**Q.** And the surface tension liquid-gas ([1]; 298.15 K, x1 = 0.9368)?
**A.** 38.1 ± 0.64 mN/m

**Q.** What about the surface tension liquid-gas ([1]; 298.15 K, x1 = 1) of the same compound?
**A.** 38.92 ± 0.66 mN/m

**Q.** And the surface tension liquid-gas ([1]; 303.15 K, x1 = 0.0253)?
**A.** 22.49 ± 0.37 mN/m

**Q.** What about the surface tension liquid-gas ([1]; 303.15 K, x1 = 0.0321) of the same compound?
**A.** 22.63 ± 0.37 mN/m

**Q.** And the surface tension liquid-gas ([1]; 303.15 K, x1 = 0.1033)?
**A.** 24.06 ± 0.39 mN/m

**Q.** And the surface tension liquid-gas ([1]; 303.15 K, x1 = 0.1629)?
**A.** 25.26 ± 0.41 mN/m

**Q.** And the surface tension liquid-gas ([1]; 303.15 K, x1 = 0.1705)?
**A.** 25.38 ± 0.4 mN/m

**Q.** What about the surface tension liquid-gas ([1]; 303.15 K, x1 = 0.2474) of the same compound?
**A.** 26.79 ± 0.43 mN/m

**Q.** What about the surface tension liquid-gas ([1]; 303.15 K, x1 = 0.3713) of the same compound?
**A.** 28.95 ± 0.46 mN/m

**Q.** What about the surface tension liquid-gas ([1]; 303.15 K, x1 = 0.4806) of the same compound?
**A.** 30.84 ± 0.5 mN/m

**Q.** And the surface tension liquid-gas ([1]; 303.15 K, x1 = 0.5506)?
**A.** 32.01 ± 0.52 mN/m

**Q.** What about the surface tension liquid-gas ([1]; 303.15 K, x1 = 0.7035) of the same compound?
**A.** 34.48 ± 0.56 mN/m

**Q.** What about the surface tension liquid-gas ([1]; 303.15 K, x1 = 0.7452) of the same compound?
**A.** 35.08 ± 0.58 mN/m

**Q.** And the surface tension liquid-gas ([1]; 303.15 K, x1 = 0.8227)?
**A.** 36.09 ± 0.6 mN/m

**Q.** What about the surface tension liquid-gas ([1]; 303.15 K, x1 = 0.9368) of the same compound?
**A.** 37.39 ± 0.63 mN/m

**Q.** What about the surface tension liquid-gas ([1]; 303.15 K, x1 = 1) of the same compound?
**A.** 38.08 ± 0.64 mN/m

**Q.** What about the surface tension liquid-gas ([1]; 308.15 K, x1 = 0.0253) of the same compound?
**A.** 22.16 ± 0.36 mN/m

**Q.** And the surface tension liquid-gas ([1]; 308.15 K, x1 = 0.0321)?
**A.** 22.27 ± 0.37 mN/m

**Q.** What about the surface tension liquid-gas ([1]; 308.15 K, x1 = 0.1033) of the same compound?
**A.** 23.77 ± 0.39 mN/m

**Q.** What about the surface tension liquid-gas ([1]; 308.15 K, x1 = 0.1629) of the same compound?
**A.** 24.94 ± 0.4 mN/m

**Q.** What about the surface tension liquid-gas ([1]; 308.15 K, x1 = 0.1705) of the same compound?
**A.** 25.08 ± 0.41 mN/m

**Q.** What about the surface tension liquid-gas ([1]; 308.15 K, x1 = 0.2474) of the same compound?
**A.** 26.53 ± 0.43 mN/m

**Q.** What about the surface tension liquid-gas ([1]; 308.15 K, x1 = 0.3713) of the same compound?
**A.** 28.75 ± 0.46 mN/m

**Q.** And the surface tension liquid-gas ([1]; 308.15 K, x1 = 0.4806)?
**A.** 30.62 ± 0.49 mN/m

**Q.** What about the surface tension liquid-gas ([1]; 308.15 K, x1 = 0.5506) of the same compound?
**A.** 31.78 ± 0.51 mN/m

**Q.** What about the surface tension liquid-gas ([1]; 308.15 K, x1 = 0.7035) of the same compound?
**A.** 34.24 ± 0.56 mN/m

**Q.** What about the surface tension liquid-gas ([1]; 308.15 K, x1 = 0.7452) of the same compound?
**A.** 34.84 ± 0.57 mN/m

**Q.** What about the surface tension liquid-gas ([1]; 308.15 K, x1 = 0.8227) of the same compound?
**A.** 35.8 ± 0.59 mN/m

**Q.** What about the surface tension liquid-gas ([1]; 308.15 K, x1 = 0.9368) of the same compound?
**A.** 37 ± 0.62 mN/m

**Q.** And the surface tension liquid-gas ([1]; 308.15 K, x1 = 1)?
**A.** 37.63 ± 0.64 mN/m

**Q.** What about the surface tension liquid-gas ([1]; 313.15 K, x1 = 0.0253) of the same compound?
**A.** 21.92 ± 0.36 mN/m

**Q.** And the surface tension liquid-gas ([1]; 313.15 K, x1 = 0.0321)?
**A.** 22.04 ± 0.36 mN/m

**Q.** What about the surface tension liquid-gas ([1]; 313.15 K, x1 = 0.1033) of the same compound?
**A.** 23.58 ± 0.38 mN/m

**Q.** What about the surface tension liquid-gas ([1]; 313.15 K, x1 = 0.1629) of the same compound?
**A.** 24.81 ± 0.4 mN/m

**Q.** What about the surface tension liquid-gas ([1]; 313.15 K, x1 = 0.1705) of the same compound?
**A.** 24.98 ± 0.41 mN/m

**Q.** What about the surface tension liquid-gas ([1]; 313.15 K, x1 = 0.2474) of the same compound?
**A.** 26.44 ± 0.42 mN/m

**Q.** And the surface tension liquid-gas ([1]; 313.15 K, x1 = 0.3713)?
**A.** 28.63 ± 0.46 mN/m

**Q.** What about the surface tension liquid-gas ([1]; 313.15 K, x1 = 0.4806) of the same compound?
**A.** 30.49 ± 0.49 mN/m

**Q.** And the surface tension liquid-gas ([1]; 313.15 K, x1 = 0.5506)?
**A.** 31.66 ± 0.51 mN/m

**Q.** What about the surface tension liquid-gas ([1]; 313.15 K, x1 = 0.7035) of the same compound?
**A.** 34.07 ± 0.56 mN/m

**Q.** What about the surface tension liquid-gas ([1]; 313.15 K, x1 = 0.7452) of the same compound?
**A.** 34.66 ± 0.57 mN/m

**Q.** What about the surface tension liquid-gas ([1]; 313.15 K, x1 = 0.8227) of the same compound?
**A.** 35.57 ± 0.59 mN/m

**Q.** And the surface tension liquid-gas ([1]; 313.15 K, x1 = 0.9368)?
**A.** 36.73 ± 0.62 mN/m

**Q.** And the surface tension liquid-gas ([1]; 313.15 K, x1 = 1)?
**A.** 37.25 ± 0.63 mN/m

**Q.** With `CN(CCO)CCO` [N-methyldiethanolamine] as the compound, how does the surface tension liquid-gas ([2]; 288.15 K) read?
**A.** 39.99 ± 0.67 mN/m

**Q.** And the surface tension liquid-gas ([2]; 293.15 K)?
**A.** 39.26 ± 0.66 mN/m

**Q.** And the surface tension liquid-gas ([2]; 298.15 K)?
**A.** 38.92 ± 0.66 mN/m

**Q.** What about the surface tension liquid-gas ([2]; 303.15 K) of the same compound?
**A.** 38.08 ± 0.64 mN/m

**Q.** And the surface tension liquid-gas ([2]; 308.15 K)?
**A.** 37.63 ± 0.64 mN/m

**Q.** What about the surface tension liquid-gas ([2]; 313.15 K) of the same compound?
**A.** 37.25 ± 0.63 mN/m

**Q.** Which surface tension liquid-gas ([1]; 298.15 K, x2 = 0) does the source give for `CCO` [ethanol] + OCCN(CCO)CCO here?
**A.** 21.85 ± 0.35 mN/m
